ChEMBL document CHEMBL1201862, “PubChem BioAssay data set” (2004)
The source made the active and inactive calls.

Legend:
[1] = cytotoxicity in HPDE-C7 cells, cell-based, fluorescence, HTS (AID 430); format: functional; settings: Homo sapiens
[2] = target: Voltage-dependent T-type calcium channel subunit alpha-1H (Homo sapiens, UniProt O95180); format: functional;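 further: channel activity triggered by adding a high calcium stimulation buffer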
[3] = cytotoxicity in KRAS-transformed pancreatic duct cells, primary screen, cell-based, fluorescence, HTS (AID 431); format: functional; settings: Homo sapiens;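 further: cell line used: HPDE-C7K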
[4] = target: T1, Aryl hydrocarbon receptor (Homo sapiens, UniProt P35869); assay: Luminescence-based cell-based high throughput dose response assay for activators of the Aryl Hydrocarbon Receptor (AHR). [Related pubchem assays: 2796 (Primary screen (AHR activators in singlicate)), 2845 (Confirmation screen (AHR activators in triplicate)), 434939 (Counterscreen (PXR activators in triplicate)), 2804 (Summary (AHR activators))]; format: ADME
T1 sequence (P35869 whole entry): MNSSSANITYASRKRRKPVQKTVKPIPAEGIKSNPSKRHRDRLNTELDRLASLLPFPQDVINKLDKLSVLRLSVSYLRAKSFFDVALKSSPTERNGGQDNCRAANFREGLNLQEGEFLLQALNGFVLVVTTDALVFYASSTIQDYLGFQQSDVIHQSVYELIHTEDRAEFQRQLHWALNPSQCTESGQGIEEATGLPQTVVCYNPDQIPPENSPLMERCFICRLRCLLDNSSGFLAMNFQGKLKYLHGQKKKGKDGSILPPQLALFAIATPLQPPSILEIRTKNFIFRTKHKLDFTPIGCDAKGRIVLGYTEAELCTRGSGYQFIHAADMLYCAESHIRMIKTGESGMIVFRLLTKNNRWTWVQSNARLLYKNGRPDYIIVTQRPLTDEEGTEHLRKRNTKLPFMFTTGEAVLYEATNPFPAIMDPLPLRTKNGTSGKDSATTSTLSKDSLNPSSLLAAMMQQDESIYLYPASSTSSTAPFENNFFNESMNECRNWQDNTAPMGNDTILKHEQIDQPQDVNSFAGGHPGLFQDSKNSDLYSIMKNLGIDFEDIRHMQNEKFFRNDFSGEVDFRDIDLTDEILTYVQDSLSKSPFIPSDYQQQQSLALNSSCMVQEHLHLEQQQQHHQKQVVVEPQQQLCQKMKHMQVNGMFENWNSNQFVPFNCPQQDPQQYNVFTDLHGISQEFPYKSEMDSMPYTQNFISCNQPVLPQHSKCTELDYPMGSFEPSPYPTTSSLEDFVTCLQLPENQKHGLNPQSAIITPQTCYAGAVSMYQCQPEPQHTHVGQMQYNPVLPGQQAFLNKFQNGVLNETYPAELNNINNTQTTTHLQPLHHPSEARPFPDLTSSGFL

[5] = target: Peroxisome proliferator-activated receptor gamma/Nuclear receptor coactivator 3 (Homo sapiens, UniProt P37231); format: functional;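 further: agonist potency for raising coactivator recruitment to the receptor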
Chain of Peroxisome proliferator-activated receptor gamma/Nuclear receptor coactivator 3 (P37231 whole entry): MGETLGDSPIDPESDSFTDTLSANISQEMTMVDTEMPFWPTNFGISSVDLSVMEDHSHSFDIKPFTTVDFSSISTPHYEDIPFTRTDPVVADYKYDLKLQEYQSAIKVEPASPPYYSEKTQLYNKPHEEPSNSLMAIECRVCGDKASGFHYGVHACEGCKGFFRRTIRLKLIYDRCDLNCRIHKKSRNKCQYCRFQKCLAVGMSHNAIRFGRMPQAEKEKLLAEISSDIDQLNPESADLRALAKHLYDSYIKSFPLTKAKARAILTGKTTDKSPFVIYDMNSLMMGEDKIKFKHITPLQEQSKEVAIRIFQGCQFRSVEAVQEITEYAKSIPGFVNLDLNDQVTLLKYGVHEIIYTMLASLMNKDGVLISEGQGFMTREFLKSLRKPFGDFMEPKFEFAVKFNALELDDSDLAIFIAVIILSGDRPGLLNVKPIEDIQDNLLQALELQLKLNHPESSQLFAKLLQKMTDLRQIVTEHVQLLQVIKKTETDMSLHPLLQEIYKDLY
Chain of Peroxisome proliferator-activated receptor gamma/Nuclear receptor coactivator 3 (Q9Y6Q9 whole entry, further chain): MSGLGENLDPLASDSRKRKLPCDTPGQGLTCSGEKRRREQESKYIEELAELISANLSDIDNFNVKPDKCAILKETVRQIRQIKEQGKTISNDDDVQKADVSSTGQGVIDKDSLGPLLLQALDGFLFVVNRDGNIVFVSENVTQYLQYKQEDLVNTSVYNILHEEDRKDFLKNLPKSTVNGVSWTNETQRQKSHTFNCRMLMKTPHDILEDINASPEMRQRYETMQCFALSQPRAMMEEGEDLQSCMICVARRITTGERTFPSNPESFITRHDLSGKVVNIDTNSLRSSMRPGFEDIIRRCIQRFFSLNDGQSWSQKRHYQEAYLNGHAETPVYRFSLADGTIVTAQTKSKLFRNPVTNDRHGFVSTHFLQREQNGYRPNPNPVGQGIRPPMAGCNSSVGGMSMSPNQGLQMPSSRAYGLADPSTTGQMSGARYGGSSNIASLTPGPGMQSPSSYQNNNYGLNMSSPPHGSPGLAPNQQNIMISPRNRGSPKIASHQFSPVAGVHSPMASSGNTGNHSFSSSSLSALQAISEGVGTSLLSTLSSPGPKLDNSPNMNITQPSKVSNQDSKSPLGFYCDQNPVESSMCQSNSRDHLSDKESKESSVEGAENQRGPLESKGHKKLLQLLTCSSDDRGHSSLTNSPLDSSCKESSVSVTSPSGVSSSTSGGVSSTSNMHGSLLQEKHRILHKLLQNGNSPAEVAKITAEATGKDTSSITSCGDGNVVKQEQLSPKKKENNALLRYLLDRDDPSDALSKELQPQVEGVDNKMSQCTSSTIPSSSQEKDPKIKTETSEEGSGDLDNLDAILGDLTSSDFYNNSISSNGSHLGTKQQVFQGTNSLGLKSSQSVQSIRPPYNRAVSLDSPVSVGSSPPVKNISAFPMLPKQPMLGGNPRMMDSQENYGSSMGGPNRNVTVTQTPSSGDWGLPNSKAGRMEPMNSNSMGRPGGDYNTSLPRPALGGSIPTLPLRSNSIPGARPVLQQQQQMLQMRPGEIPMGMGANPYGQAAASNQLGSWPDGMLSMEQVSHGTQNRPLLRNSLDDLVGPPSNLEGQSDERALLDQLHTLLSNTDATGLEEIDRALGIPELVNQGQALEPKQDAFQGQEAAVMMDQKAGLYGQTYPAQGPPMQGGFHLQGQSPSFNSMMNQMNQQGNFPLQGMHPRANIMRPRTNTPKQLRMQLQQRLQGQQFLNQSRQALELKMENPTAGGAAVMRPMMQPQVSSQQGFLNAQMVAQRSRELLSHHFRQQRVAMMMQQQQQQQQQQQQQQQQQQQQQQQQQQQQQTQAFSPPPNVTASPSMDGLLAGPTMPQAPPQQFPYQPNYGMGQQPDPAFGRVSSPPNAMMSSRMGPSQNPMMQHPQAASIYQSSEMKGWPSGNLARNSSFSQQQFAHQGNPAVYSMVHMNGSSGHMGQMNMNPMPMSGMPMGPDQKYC

[6] = target: Peroxisome proliferator-activated receptor gamma/Nuclear receptor coactivator 1 (Homo sapiens, UniProt P37231); format: functional;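 further: agonist potency as compounds enhance coactivator SRC-1 recruitment to PPARgamma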
Chain of Peroxisome proliferator-activated receptor gamma/Nuclear receptor coactivator 1 (P37231 whole entry): as the sequence (P37231 whole entry) above
Chain of Peroxisome proliferator-activated receptor gamma/Nuclear receptor coactivator 1 (Q15788 whole entry, further chain): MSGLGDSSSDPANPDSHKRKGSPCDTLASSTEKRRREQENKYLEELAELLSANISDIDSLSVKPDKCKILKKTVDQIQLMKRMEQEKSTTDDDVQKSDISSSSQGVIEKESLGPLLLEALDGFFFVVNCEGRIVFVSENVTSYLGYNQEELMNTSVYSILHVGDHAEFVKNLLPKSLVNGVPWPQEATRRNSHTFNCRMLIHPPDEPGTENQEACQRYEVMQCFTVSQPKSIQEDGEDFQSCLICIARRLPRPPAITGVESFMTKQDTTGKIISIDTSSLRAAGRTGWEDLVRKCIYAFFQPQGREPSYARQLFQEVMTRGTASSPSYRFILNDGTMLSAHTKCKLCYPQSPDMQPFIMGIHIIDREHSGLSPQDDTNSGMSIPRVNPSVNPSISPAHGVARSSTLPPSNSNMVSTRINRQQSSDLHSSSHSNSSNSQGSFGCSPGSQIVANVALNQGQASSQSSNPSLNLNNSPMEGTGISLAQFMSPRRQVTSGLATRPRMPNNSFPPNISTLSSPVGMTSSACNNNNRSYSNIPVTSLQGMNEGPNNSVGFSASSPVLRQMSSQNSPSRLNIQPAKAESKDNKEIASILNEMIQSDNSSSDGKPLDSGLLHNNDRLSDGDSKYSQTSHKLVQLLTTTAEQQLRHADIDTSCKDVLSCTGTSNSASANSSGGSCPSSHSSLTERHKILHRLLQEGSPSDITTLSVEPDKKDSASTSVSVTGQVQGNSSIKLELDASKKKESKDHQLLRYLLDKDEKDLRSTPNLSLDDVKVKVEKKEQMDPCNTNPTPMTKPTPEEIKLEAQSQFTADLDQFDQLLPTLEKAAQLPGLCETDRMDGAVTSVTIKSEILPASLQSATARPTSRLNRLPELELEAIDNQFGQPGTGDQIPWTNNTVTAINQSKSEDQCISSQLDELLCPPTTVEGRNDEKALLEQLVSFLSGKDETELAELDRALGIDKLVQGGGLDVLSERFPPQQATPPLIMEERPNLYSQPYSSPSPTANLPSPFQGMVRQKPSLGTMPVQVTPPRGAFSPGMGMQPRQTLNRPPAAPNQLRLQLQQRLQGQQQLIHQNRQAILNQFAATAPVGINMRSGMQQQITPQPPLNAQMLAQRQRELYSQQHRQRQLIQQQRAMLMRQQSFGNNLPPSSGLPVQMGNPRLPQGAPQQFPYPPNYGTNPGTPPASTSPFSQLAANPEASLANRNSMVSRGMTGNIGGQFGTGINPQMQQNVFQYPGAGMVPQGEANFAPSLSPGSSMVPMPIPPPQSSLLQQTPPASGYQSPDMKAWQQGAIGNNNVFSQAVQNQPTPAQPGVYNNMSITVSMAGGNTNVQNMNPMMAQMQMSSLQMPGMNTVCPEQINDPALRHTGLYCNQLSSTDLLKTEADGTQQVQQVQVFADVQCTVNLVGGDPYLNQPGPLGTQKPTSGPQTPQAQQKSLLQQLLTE

[7] = target: Peroxisome proliferator-activated receptor gamma/Nuclear receptor coactivator 2 (Homo sapiens, UniProt P37231); format: functional;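 further: agonist potency for raising coactivator recruitment to the receptor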
[8] = Luminescence Cell-Based Dose Confirmation HTS to Identify Inhibitors of Platelet Dense Granule Release. [Related pubchem assays: 1663 (Primary HTS), 1678 (Summary of Project)]; format: functional
[9] = target: T2, Luciferin 4-monooxygenase (Photinus pyralis, UniProt P08659); assay: firefly luciferase enzyme inhibitors, dose response, biochemical, luminescence (AID 1891)
T2 sequence (P08659 whole entry): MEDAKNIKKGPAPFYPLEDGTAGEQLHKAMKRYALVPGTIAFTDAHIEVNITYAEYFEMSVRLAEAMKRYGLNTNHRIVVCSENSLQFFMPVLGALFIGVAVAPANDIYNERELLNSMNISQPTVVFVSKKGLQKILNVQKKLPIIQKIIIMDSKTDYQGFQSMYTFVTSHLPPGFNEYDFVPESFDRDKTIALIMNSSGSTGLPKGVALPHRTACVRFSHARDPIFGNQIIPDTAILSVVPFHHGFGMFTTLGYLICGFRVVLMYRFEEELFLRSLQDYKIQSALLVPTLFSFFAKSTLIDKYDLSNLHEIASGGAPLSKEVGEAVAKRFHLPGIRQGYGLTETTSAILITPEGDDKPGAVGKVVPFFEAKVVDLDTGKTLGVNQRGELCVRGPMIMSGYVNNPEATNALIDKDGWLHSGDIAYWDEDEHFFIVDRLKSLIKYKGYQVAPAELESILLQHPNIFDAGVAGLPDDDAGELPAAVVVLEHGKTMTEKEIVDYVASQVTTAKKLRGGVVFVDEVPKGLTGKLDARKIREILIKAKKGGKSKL

[10] = inhibitors of SNCA 5'UTR-driven reporter translation, confirmation, H4 neuroglioma cells, luminescence (AID 1988); format: functional, cell-based
HT-1080 = assay: cytotoxicity in HT1080 fibrosarcoma cells, cell-based, fluorescence readout (AID 620); format: functional; settings: Homo sapiens
[11] = Luminescence Cell-Based Dose Response HTS to Identify Inhibitors of 5'UTR Stem-Loop Driven Prion Protein mRNA Translation in H4 Neuroglioblastoma Cells. [Related pubchem assays: 1827 (Project Summary), 1813 (Primary HTS)]; format: functional
[12] = target: T2, Luciferin 4-monooxygenase; assay: Counter Screen for Luciferase-based Assay Positives. [Related pubchem assays: 620, 618, 411 ]
[13] = target: Mitogen-activated protein kinase 10 (Homo sapiens, UniProt P53779); assay: Dose response biochemical screening assay for inhibitors of c-Jun N-Terminal Kinase 3 (JNK3). [Related pubchem assays: 746 ]
Chain of Mitogen-activated protein kinase 10 (P53779 whole entry): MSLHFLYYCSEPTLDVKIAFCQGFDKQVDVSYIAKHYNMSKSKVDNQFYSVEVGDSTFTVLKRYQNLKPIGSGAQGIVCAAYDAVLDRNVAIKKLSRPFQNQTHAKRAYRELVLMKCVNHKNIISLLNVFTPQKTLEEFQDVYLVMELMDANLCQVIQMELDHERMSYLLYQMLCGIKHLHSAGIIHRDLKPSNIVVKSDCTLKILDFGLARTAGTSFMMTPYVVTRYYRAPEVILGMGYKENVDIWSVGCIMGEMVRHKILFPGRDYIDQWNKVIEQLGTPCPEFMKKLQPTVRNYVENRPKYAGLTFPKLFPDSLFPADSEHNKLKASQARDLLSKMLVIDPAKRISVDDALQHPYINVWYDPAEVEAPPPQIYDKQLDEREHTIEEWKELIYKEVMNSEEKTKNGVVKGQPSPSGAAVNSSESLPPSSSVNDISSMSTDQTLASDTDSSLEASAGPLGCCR

[14] = A Cell Based Secondary Assay To Explore Cytotoxicity of Compounds that Sensitize Mycobacterium Tuberculosis to Beta-Lactam Antibiotics.; format: functional
[15] = target: T3, Calpain-2 catalytic subunit (Sus scrofa, UniProt P43367); assay: pig calpain II inhibitor potency, dose response, biochemical, fluorogenic peptide substrate (AID 1420); format: functional
T3 sequence (P43367 whole entry): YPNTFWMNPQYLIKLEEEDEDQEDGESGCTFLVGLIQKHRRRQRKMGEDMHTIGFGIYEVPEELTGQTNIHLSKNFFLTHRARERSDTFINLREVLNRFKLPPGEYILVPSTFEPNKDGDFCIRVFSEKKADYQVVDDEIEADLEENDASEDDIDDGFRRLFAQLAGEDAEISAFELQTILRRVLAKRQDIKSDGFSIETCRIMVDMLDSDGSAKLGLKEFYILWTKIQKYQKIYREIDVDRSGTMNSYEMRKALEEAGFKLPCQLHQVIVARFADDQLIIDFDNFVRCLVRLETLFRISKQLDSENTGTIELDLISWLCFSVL

[16] = growth suppression of PTEN-null colon cells, dose response, cell-based, HCT116 PTEN knockout (AID 1047); format: functional;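 further: HCT116 colon tumor cells with PTEN knocked out; cells exposed to compound for 60 hours before readout; potency for loss of cell viability measured by luminescence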
[17] = growth suppression of beta-catenin-knockout colon cells, dose response, cell-based, HCT116, human colon tumor (AID 1045); format: functional;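 further: HCT116 colon tumor cells with beta catenin knocked out; cells exposed to compound for 60 hours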
[18] = inhibitors of firefly luciferase expression or activity, dose response, H4 neuroglioma cells, luminescence (AID 1990); format: functional, cell-based
cells = format: functional, cell-based
Nonstructural protein 1 = Nonstructural protein 1 (Influenza A virus, UniProt Q194T2); format: functional, Influenza A virus (A/California/07/2009(H1N1))
Large T antigen = Large T antigen (Simian virus 40, UniProt P03070); format: functional, Betapolyomavirus macacae;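 further: Confirmatory-stage PubChem screen for compounds that inhibit SV40 T antigen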
[19] = luciferase reporter signal reduction – luminescence, H4-C neuroglioblastoma cells, dose response (AID 2458); format: functional, cell-based;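 further: H4 neuroglioblastoma cells stably carrying a luciferase reporter gene fusion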
[20] = inhibitors of SNCA 5'UTR-driven translation, confirmation, luminescence, H4 neuroglioblastoma cells, dose confirmation (AID 2454); format: functional, cell-based;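 further: H4 neuroglioblastoma cells carrying an alpha-synuclein 5'UTR luciferase reporter; potency for inhibition of the luciferase signal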
Estrogen receptor beta = Estrogen receptor beta (Homo sapiens, UniProt Q92731);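 further: recombinant ER-beta bound to coactivator SRC1 peptide in presence of estradiol agonist; inhibitors block coactivator peptide binding and lower the FRET signal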
Streptokinase A = target: T4, Streptokinase A (Streptococcus pyogenes serotype M1, UniProt P10520); assay: S. pyogenes streptokinase expression inhibitors, potency, dose response, plasminogen activation absorbance, OD405 (AID 1914); format: functional, Streptococcus pyogenes M1 GAS;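 further: secreted streptokinase activity via plasminogen activation per viability signal from cell pellet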
T4 sequence (P10520 whole entry): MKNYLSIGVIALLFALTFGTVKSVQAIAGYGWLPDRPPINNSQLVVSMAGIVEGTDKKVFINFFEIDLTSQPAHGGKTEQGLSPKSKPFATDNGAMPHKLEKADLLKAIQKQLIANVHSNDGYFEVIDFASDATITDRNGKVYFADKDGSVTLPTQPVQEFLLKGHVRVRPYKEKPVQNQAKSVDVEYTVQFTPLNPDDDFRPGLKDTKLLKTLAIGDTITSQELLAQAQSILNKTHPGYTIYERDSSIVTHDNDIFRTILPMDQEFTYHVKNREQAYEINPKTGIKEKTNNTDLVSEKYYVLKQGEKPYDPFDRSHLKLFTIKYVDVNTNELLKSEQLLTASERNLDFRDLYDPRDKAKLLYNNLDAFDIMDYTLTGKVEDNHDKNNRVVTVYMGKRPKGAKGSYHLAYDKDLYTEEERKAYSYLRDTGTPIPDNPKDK

Streptococcus = assay: Group A Streptococcus viability loss, dose response, counter-screen for streptokinase expression inhibitor project, luminescence, BacTiterGlo (AID 1915); format: functional, organism-based;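 further: potency for reduction of bacterial viability or growth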
[21] = system: Streptococcus sp. 'group A'; assay: growth inhibition of control SK(-) GAS strain, dose response, counter-screen for streptokinase expression inhibitor project, luminescence, kanamycin, BacTiterGlo, confirmation (AID 1900); format: functional, organism-based
Cytochrome P450 1A2 = target: T5, Cytochrome P450 1A2 (Homo sapiens, UniProt P05177);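 further: PubChem cytochrome P450 panel assay, CYP1A2 panel member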
T5 sequence (P05177 whole entry): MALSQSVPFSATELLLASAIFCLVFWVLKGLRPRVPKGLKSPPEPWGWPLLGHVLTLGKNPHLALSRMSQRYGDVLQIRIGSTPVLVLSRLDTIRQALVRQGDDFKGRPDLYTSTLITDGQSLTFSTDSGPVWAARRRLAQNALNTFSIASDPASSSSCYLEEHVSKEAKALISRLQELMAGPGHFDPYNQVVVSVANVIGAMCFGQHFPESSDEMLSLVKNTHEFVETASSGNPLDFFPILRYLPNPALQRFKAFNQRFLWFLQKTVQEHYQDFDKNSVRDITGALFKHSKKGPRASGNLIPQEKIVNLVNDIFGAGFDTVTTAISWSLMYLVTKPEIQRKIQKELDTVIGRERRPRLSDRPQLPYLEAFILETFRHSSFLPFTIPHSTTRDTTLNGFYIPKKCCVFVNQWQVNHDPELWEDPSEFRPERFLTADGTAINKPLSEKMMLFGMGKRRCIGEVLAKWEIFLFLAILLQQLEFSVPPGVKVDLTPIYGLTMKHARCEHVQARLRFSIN

[22] = Luminescence Cell-Based Dose Retest to Confirm Inhibitors of Cancer Stem Cells. [Related pubchem assays (depositor defined):AID2717, AID2721]; format: functional; settings: Homo sapiens
Cytochrome P450 2C19 = Cytochrome P450 2C19 (Homo sapiens, UniProt P33261); assay: Cytochrome panel assay with activity outcomes. Panel member name: p450-cyp2c19 Compounds with AC50 equal or less than 10 uM are considered active; format: functional; settings: read-out: AC50
Cytochrome P450 2D6 = Cytochrome P450 2D6 (Homo sapiens, UniProt P10635);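 further: CYP2D6 member of a cytochrome P450 panel assay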
[23] = target: NAD-dependent protein deacylase sirtuin-5, mitochondrial (Homo sapiens, UniProt Q9NXA8); assay: SIRT5 desuccinylase inhibitors, dose response, biochemical, fluorescence imaging, cherry-pick, set 5 (AID 720591);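 further: desuccinylation of succinyl peptide AMC substrate read as fluorescence after trypsin release; potency of inhibitors that lower fluorescence and may act on trypsin instead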

O=C(Nc1ncc(Br)s1)C(Cc1ccccc1)n1cccc1 (stereo unspecified)
EC50 [1]: 11.9 µM (active) | EC50 [2]: 1.33 µM (active) | EC50 [3]: 13.2 µM (active)

COc1cccc(-c2nn(C)c3sc(C(=O)N4CCN(c5ccccn5)CC4)cc23)c1
EC50 [1]: 15.2 µM (active) | EC50 [3]: 14 µM (active)

Oc1oc(-c2ccccc2)nc1/C=N/c1nccs1
EC50 [4]: 12.3 µM (not active)

COC(=O)c1ccc(S(=O)(=O)c2ccc(C(=O)OC)s2)s1
EC50 [5]: 36.7 µM (not active) | EC50 [6]: 24.6 µM (not active) | EC50 [7]: 27.1 µM (not active)

O=C(Nc1cccc(O)c1)c1noc2c1CCCCC2
EC50 [8]: 3.4 µM (active) | EC50 [9]: 2.87 µM (active) | EC50 [10]: 8.89 µM (active) | EC50 (HT-1080): > 50 µM (not active) | EC50 [11]: > 30 µM (not active) | EC50 [12]: > 100 µM (not active)

COc1ccc(CC(=O)Nc2nc3ccccc3s2)cc1S(=O)(=O)N1CCOCC1
IC50 [13]: 24.7 µM (not active)

Cc1csc(SCC(=O)Nc2ccc(Cl)cn2)n1
EC50 [4]: 1.54 µM (active)

CC(=O)Nc1ccc(S(=O)(=O)N2CCC(n3cnc4cc(F)ccc43)CC2)cc1
IC50 [13]: 32.2 µM (not active)

O=C(Nc1ccc(OC(=O)c2ccccc2)c(-c2nc3ccccc3s2)c1)c1ccccc1
CC50 [14]: > 40 µM (active) | IC50 [15]: 18.5 µM (not active) | EC50 [16]: 18.2 µM (active) | EC50 [17]: 24.2 µM (active)

Cc1ccc(-c2nc3cc(N)ccc3o2)c(C)c1
EC50 (HT-1080): > 50 µM (not active) | EC50 [12]: 1.95 µM (active)

Cc1nc2ncccn2c1-c1csc(Nc2ccc(N(C)C)cc2)n1
EC50 [18]: > 120 µM (not active) | EC50 [10]: < 0.1 µM (inconclusive) | EC50 (cells): 0.163 µM (active) | IC50 (Nonstructural protein 1): 8.9 µM (active) | IC50 (Large T antigen): 6.91 µM (active) | EC50 [19]: 0.108 µM (active) | EC50 [20]: 0.128 µM (active)

COc1ccc(Cn2c(C)c(C)c(C#N)c2NC(=O)Nc2cccc(C)c2)cc1
IC50 (Estrogen receptor beta): > 50 µM (not active)

Cc1cccc(NC(=O)c2nc[nH]c2C(=O)N[C@@H](CC(C)C)C(=O)OCc2ccccc2)c1
CC50 [14]: 22.4 µM (active) | EC50 (Streptokinase A): > 150 µM (not active) | EC50 (Streptococcus): 3.95 µM (active) | EC50 [21]: 2.12 µM (active)

O=C(/C=C/c1ccccc1[N+](=O)[O-])c1ccc(F)cc1
CC50 [14]: > 40 µM (active)

COc1cc(C(=O)NCc2cn3ccccc3n2)cc(OC)c1OC
IC50 [13]: 7.87 µM (active)

CC(C)(Sc1ccc(CCN(CCCCC2CCCCC2)C(=O)NC2CCCCC2)cc1)C(=O)O [GW7647]
AC50 (Cytochrome P450 1A2): 39.8 µM (inconclusive) | AC50 [22]: 4.46 µM (active) | AC50 (Cytochrome P450 2C19): 25.1 µM (inconclusive) | AC50 (Cytochrome P450 2D6): inconclusive | AC50 [23]: 7.9 µM (active)

C=CCn1c(=O)c2ccccc2n2c(SCC(=O)c3ccccc3)nnc12
EC50 [5]: > 79.4 µM (not active) | EC50 [6]: > 79.4 µM (not active) | EC50 [7]: > 79.4 µM (not active)

O=C(Nc1cnc2ccccn2c1=O)c1ccc(F)cc1
IC50 (Estrogen receptor beta): > 50 µM (not active)

O=C(O)CCCC(=O)Nc1cc([N+](=O)[O-])ccc1O
EC50 [5]: > 79.4 µM (not active) | EC50 [6]: > 79.4 µM (not active) | EC50 [7]: > 79.4 µM (not active)

CC(/C=C/c1cccc([N+](=O)[O-])c1)=N/NC(=O)c1cccnc1
EC50 [4]: > 91.6 µM (not active)
